Key:
Assay in all cases: cells
HuP-T3 = assay type: functional, cell-based, Homo sapiens; conditions: Homo sapiens, HuP-T3
Description: SANGER: Inhibition of human HuP-T3 cell growth in a cell viability assay.

HT-29 = assay type: functional, cell-based, Homo sapiens; conditions: Homo sapiens, HT-29
Description: SANGER: Inhibition of human HT-29 cell growth in a cell viability assay.

SK-MEL-2 = assay type: functional, cell-based, Homo sapiens; conditions: Homo sapiens, SK-MEL-2
Description: SANGER: Inhibition of human SK-MEL-2 cell growth in a cell viability assay.

LCLC-103H cell line = assay type: functional, cell-based, Homo sapiens; conditions: Homo sapiens, LCLC-103H
Description: SANGER: Inhibition of human LCLC-103H cell growth in a cell viability assay.

HT-3 = assay type: functional, cell-based, Homo sapiens; conditions: Homo sapiens, HT-3
Description: SANGER: Inhibition of human HT-3 cell growth in a cell viability assay.

SW1710 = assay type: functional, cell-based, Homo sapiens; conditions: Homo sapiens, SW1710
Description: SANGER: Inhibition of human SW1710 cell growth in a cell viability assay.

KGN = assay type: functional, cell-based, Homo sapiens; conditions: Homo sapiens, KGN
Description: SANGER: Inhibition of human KGN cell growth in a cell viability assay.

UO-31 = assay type: functional, cell-based; conditions: Homo sapiens
Description: SANGER: Inhibition of human U031 cell growth in a cell viability assay.

NCI-H2228 = assay type: functional, cell-based, Homo sapiens; conditions: Homo sapiens, NCI-H2228
Description: SANGER: Inhibition of human NCI-H2228 cell growth in a cell viability assay.

SW837 = assay type: functional, cell-based, Homo sapiens; conditions: Homo sapiens, SW837
Description: SANGER: Inhibition of human SW837 cell growth in a cell viability assay.

MZ2-MEL = assay type: functional, cell-based, Homo sapiens; conditions: Homo sapiens, MZ2-MEL
Description: SANGER: Inhibition of human MZ2-MEL cell growth in a cell viability assay.

NCI-H650 = assay type: functional, cell-based, Homo sapiens; conditions: Homo sapiens, NCI-H650
Description: SANGER: Inhibition of human NCI-H650 cell growth in a cell viability assay.

KYSE-510 = assay type: functional, cell-based, Homo sapiens; conditions: Homo sapiens, KYSE-510
Description: SANGER: Inhibition of human KYSE-510 cell growth in a cell viability assay.

MPP-89 = assay type: functional, cell-based, Homo sapiens; conditions: Homo sapiens, MPP-89
Description: SANGER: Inhibition of human MPP-89 cell growth in a cell viability assay.

LU-134-A = assay type: functional, cell-based; conditions: Homo sapiens
Description: SANGER: Inhibition of human LU-134-A cell growth in a cell viability assay.

LC-2-ad = assay type: functional, cell-based, Homo sapiens; conditions: Homo sapiens, LC-2-ad
Description: SANGER: Inhibition of human LC-2-ad cell growth in a cell viability assay.

JVM-2 = assay type: functional, cell-based; conditions: Homo sapiens
Description: SANGER: Inhibition of human JVM-2 cell growth in a cell viability assay.

SK-N-AS = assay type: functional, cell-based, Homo sapiens; conditions: Homo sapiens, SK-N-AS
Description: SANGER: Inhibition of human SK-N-AS cell growth in a cell viability assay.

IST-MEL1 = assay type: functional, cell-based, Homo sapiens; conditions: Homo sapiens, IST-MEL1
Description: SANGER: Inhibition of human IST-MEL1 cell growth in a cell viability assay.

OAW-42 = assay type: functional, cell-based, Homo sapiens; conditions: Homo sapiens, OAW-42
Description: SANGER: Inhibition of human OAW-42 cell growth in a cell viability assay.

IGROV-1 = assay type: functional, cell-based, Homo sapiens; conditions: Homo sapiens, IGROV-1
Description: SANGER: Inhibition of human IGROV-1 cell growth in a cell viability assay.

D-542MG = assay type: functional, cell-based, Homo sapiens; conditions: Homo sapiens, D-542MG
Description: SANGER: Inhibition of human D-542MG cell growth in a cell viability assay.

BHT-101 = assay type: functional, cell-based, Homo sapiens; conditions: Homo sapiens, BHT-101
Description: SANGER: Inhibition of human BHT-101 cell growth in a cell viability assay.

DEL = assay type: functional, cell-based; conditions: Homo sapiens
Description: SANGER: Inhibition of human DEL cell growth in a cell viability assay.

MN-60 = assay type: functional, cell-based; conditions: Homo sapiens
Description: SANGER: Inhibition of human MN-60 cell growth in a cell viability assay.

TE-11 = assay type: functional, cell-based, Homo sapiens; conditions: Homo sapiens, TE-11
Description: SANGER: Inhibition of human TE-11 cell growth in a cell viability assay.

NCI-H23 = assay type: functional, cell-based, Homo sapiens; conditions: Homo sapiens, NCI-H23
Description: SANGER: Inhibition of human NCI-H23 cell growth in a cell viability assay.

CAL-62 = assay type: functional, cell-based, Homo sapiens; conditions: Homo sapiens, CAL-62
Description: SANGER: Inhibition of human CAL-62 cell growth in a cell viability assay.

HT-144 = assay type: functional, cell-based, Homo sapiens; conditions: Homo sapiens, HT-144
Description: SANGER: Inhibition of human HT-144 cell growth in a cell viability assay.

Capan-2 = assay type: functional, cell-based, Homo sapiens; conditions: Homo sapiens, Capan-2
Description: SANGER: Inhibition of human Capan-2 cell growth in a cell viability assay.

OE33 = assay type: functional, cell-based, Homo sapiens; conditions: Homo sapiens, OE33
Description: SANGER: Inhibition of human OE33 cell growth in a cell viability assay.

MC116 = assay type: functional, cell-based; conditions: Homo sapiens
Description: SANGER: Inhibition of human MC116 cell growth in a cell viability assay.

MZ1-PC = assay type: functional, cell-based, Homo sapiens; conditions: Homo sapiens, MZ1-PC
Description: SANGER: Inhibition of human MZ1-PC cell growth in a cell viability assay.

PANC-08-13 = assay type: functional, cell-based, Homo sapiens; conditions: Homo sapiens, PANC-08-13
Description: SANGER: Inhibition of human PANC-08-13 cell growth in a cell viability assay.

NTERA-2-cl-D1 = assay type: functional, cell-based, Homo sapiens; conditions: Homo sapiens, NTERA-2-cl-D1
Description: SANGER: Inhibition of human NTERA-S-cl-D1 cell growth in a cell viability assay.

SK-MEL-1 = assay type: functional, cell-based; conditions: Homo sapiens
Description: SANGER: Inhibition of human SK-MEL-1 cell growth in a cell viability assay.

GMS-10 = assay type: functional, cell-based, Homo sapiens; conditions: Homo sapiens, GMS-10
Description: SANGER: Inhibition of human GMS-10 cell growth in a cell viability assay.

DBTRG-05MG = assay type: functional, cell-based, Homo sapiens; conditions: Homo sapiens, DBTRG-05MG
Description: SANGER: Inhibition of human DBTRG-05MG cell growth in a cell viability assay.

COR-L23 = assay type: functional, cell-based, Homo sapiens; conditions: Homo sapiens, COR-L23
Description: SANGER: Inhibition of human COR-L23 cell growth in a cell viability assay.

LS-1034 = assay type: functional, cell-based, Homo sapiens; conditions: Homo sapiens, LS-1034
Description: SANGER: Inhibition of human LS-1034 cell growth in a cell viability assay.

LOX IMVI = assay type: functional, cell-based; conditions: Homo sapiens
Description: SANGER: Inhibition of human LOXIMVI cell growth in a cell viability assay.

KYSE-70 cell line = assay type: functional, cell-based, Homo sapiens; conditions: Homo sapiens, KYSE-70
Description: SANGER: Inhibition of human KYSE-70 cell growth in a cell viability assay.

IST-SL1 = assay type: functional, cell-based, Homo sapiens; conditions: Homo sapiens, IST-SL1
Description: SANGER: Inhibition of human IST-SL1 cell growth in a cell viability assay.

KARPAS-299 = assay type: functional, cell-based; conditions: Homo sapiens
Description: SANGER: Inhibition of human KARPAS-299 cell growth in a cell viability assay.

U-251 = assay type: functional, cell-based, Homo sapiens; conditions: Homo sapiens, U-251
Description: SANGER: Inhibition of human U251 cell growth in a cell viability assay.

TE-12 = assay type: functional, cell-based; conditions: Homo sapiens
Description: SANGER: Inhibition of human TE-12 cell growth in a cell viability assay.

FTC-133 = assay type: functional, cell-based, Homo sapiens; conditions: Homo sapiens, FTC-133
SH-4 = assay type: functional, cell-based, Homo sapiens; conditions: Homo sapiens, SH-4
Description: SANGER: Inhibition of human SH-4 cell growth in a cell viability assay.

KOSC-2 = assay type: functional, cell-based, Homo sapiens; conditions: Homo sapiens, KOSC-2
Description: SANGER: Inhibition of human KOSC-2 cell growth in a cell viability assay.

NCI-H1623 = assay type: functional, cell-based, Homo sapiens; conditions: Homo sapiens, NCI-H1623
Description: SANGER: Inhibition of human NCI-H1623 cell growth in a cell viability assay.

## CCOc1nc(NC(=O)Cc2cc(OC)ccc2OC)cc(N)c1C#N
HuP-T3
  IC50: > 10 µM
HT-29
  IC50: > 10 µM
SK-MEL-2
  IC50: > 10 µM
LCLC-103H cell line
  IC50: > 10 µM
HT-3
  IC50: > 10 µM
SW1710
  IC50: > 10 µM
KGN
  IC50: > 10 µM
UO-31
  IC50: > 10 µM
NCI-H2228
  IC50: > 10 µM
SW837
  IC50: > 10 µM
MZ2-MEL
  IC50: > 10 µM
NCI-H650
  IC50: > 10 µM
KYSE-510
  IC50: > 10 µM
MPP-89
  IC50: > 10 µM
LU-134-A
  IC50: > 10 µM
LC-2-ad
  IC50: > 10 µM
JVM-2
  IC50: > 10 µM
SK-N-AS
  IC50: > 10 µM
IST-MEL1
  IC50: > 10 µM
OAW-42
  IC50: > 10 µM
IGROV-1
  IC50: > 10 µM
D-542MG
  IC50: > 10 µM
BHT-101
  IC50: > 10 µM
DEL
  IC50: > 10 µM
MN-60
  IC50: > 10 µM
TE-11
  IC50: > 10 µM
NCI-H23
  IC50: > 10 µM
CAL-62
  IC50: > 10 µM
HT-144
  IC50: > 10 µM
Capan-2
  IC50: > 10 µM
OE33
  IC50: > 10 µM
MC116
  IC50: > 10 µM
MZ1-PC
  IC50: > 10 µM
PANC-08-13
  IC50: > 10 µM
NTERA-2-cl-D1
  IC50: > 10 µM
SK-MEL-1
  IC50: > 10 µM
GMS-10
  IC50: > 10 µM
DBTRG-05MG
  IC50: > 10 µM
COR-L23
  IC50: > 10 µM
LS-1034
  IC50: > 10 µM
LOX IMVI
  IC50: > 10 µM
KYSE-70 cell line
  IC50: > 10 µM
IST-SL1
  IC50: > 10 µM
KARPAS-299
  IC50: > 10 µM
U-251
  IC50: > 10 µM
TE-12
  IC50: > 10 µM
FTC-133
  IC50: > 10 µM
SH-4
  IC50: > 10 µM
KOSC-2
  IC50: > 10 µM
NCI-H1623
  IC50: > 10 µM

## CC(=O)O[C@@H]1[C@@H](OC(C)=O)[C@@H](O)[C@H](Oc2c(-c3ccc(O)cc3)oc3cc(O)cc(O)c3c2=O)O[C@H]1C
HuP-T3
  IC50: > 10 µM
HT-29
  IC50: > 10 µM
SK-MEL-2
  IC50: > 10 µM
LCLC-103H cell line
  IC50: > 10 µM
HT-3
  IC50: > 10 µM
SW1710
  IC50: > 10 µM
KGN
  IC50: > 10 µM
UO-31
  IC50: > 10 µM
NCI-H2228
  IC50: > 10 µM
SW837
  IC50: > 10 µM
MZ2-MEL
  IC50: > 10 µM
NCI-H650
  IC50: > 10 µM
KYSE-510
  IC50: > 10 µM
MPP-89
  IC50: > 10 µM
LU-134-A
  IC50: > 10 µM
LC-2-ad
  IC50: > 10 µM
JVM-2
  IC50: > 10 µM
SK-N-AS
  IC50: > 10 µM
IST-MEL1
  IC50: > 10 µM
OAW-42
  IC50: > 10 µM
IGROV-1
  IC50: > 10 µM
D-542MG
  IC50: > 10 µM
BHT-101
  IC50: > 10 µM
DEL
  IC50: > 10 µM
MN-60
  IC50: > 10 µM
TE-11
  IC50: > 10 µM
NCI-H23
  IC50: > 10 µM
CAL-62
  IC50: > 10 µM
HT-144
  IC50: > 10 µM
Capan-2
  IC50: > 10 µM
OE33
  IC50: > 10 µM
MC116
  IC50: > 10 µM
MZ1-PC
  IC50: > 10 µM
PANC-08-13
  IC50: > 10 µM
NTERA-2-cl-D1
  IC50: > 10 µM
SK-MEL-1
  IC50: 9.05 µM
GMS-10
  IC50: > 10 µM
DBTRG-05MG
  IC50: > 10 µM
COR-L23
  IC50: > 10 µM
LS-1034
  IC50: > 10 µM
LOX IMVI
  IC50: > 10 µM
KYSE-70 cell line
  IC50: > 10 µM
IST-SL1
  IC50: > 10 µM
KARPAS-299
  IC50: > 10 µM
U-251
  IC50: > 10 µM
TE-12
  IC50: > 10 µM
FTC-133
  IC50: > 10 µM
SH-4
  IC50: > 10 µM
KOSC-2
  IC50: > 10 µM
NCI-H1623
  IC50: > 10 µM

## O=c1cc(-c2cccc3c2Sc2ccccc2S3)oc(N2CCOCC2)c1 [KU-55933]
HuP-T3
  IC50: > 10 µM
HT-29
  IC50: > 10 µM
SK-MEL-2
  IC50: > 10 µM
LCLC-103H cell line
  IC50: > 10 µM
HT-3
  IC50: > 10 µM
SW1710
  IC50: > 10 µM
KGN
  IC50: > 10 µM
UO-31
  IC50: > 10 µM
NCI-H2228
  IC50: > 10 µM
SW837
  IC50: > 10 µM
MZ2-MEL
  IC50: > 10 µM
NCI-H650
  IC50: > 10 µM
KYSE-510
  IC50: > 10 µM
MPP-89
  IC50: > 10 µM
LU-134-A
  IC50: > 10 µM
LC-2-ad
  IC50: > 10 µM
SK-N-AS
  IC50: > 10 µM
IST-MEL1
  IC50: > 10 µM
OAW-42
  IC50: > 10 µM
IGROV-1
  IC50: > 10 µM
D-542MG
  IC50: > 10 µM
BHT-101
  IC50: > 10 µM
DEL
  IC50: > 10 µM
MN-60
  IC50: > 10 µM
TE-11
  IC50: > 10 µM
NCI-H23
  IC50: > 10 µM
CAL-62
  IC50: > 10 µM
HT-144
  IC50: > 10 µM
Capan-2
  IC50: > 10 µM
OE33
  IC50: > 10 µM
MC116
  IC50: > 10 µM
MZ1-PC
  IC50: > 10 µM
PANC-08-13
  IC50: > 10 µM
NTERA-2-cl-D1
  IC50: > 10 µM
SK-MEL-1
  IC50: > 10 µM
GMS-10
  IC50: > 10 µM
DBTRG-05MG
  IC50: > 10 µM
COR-L23
  IC50: > 10 µM
LS-1034
  IC50: > 10 µM
LOX IMVI
  IC50: > 10 µM
KYSE-70 cell line
  IC50: > 10 µM
IST-SL1
  IC50: > 10 µM
KARPAS-299
  IC50: > 10 µM
U-251
  IC50: > 10 µM
TE-12
  IC50: > 10 µM
FTC-133
  IC50: > 10 µM
SH-4
  IC50: > 10 µM
KOSC-2
  IC50: > 10 µM
NCI-H1623
  IC50: > 10 µM

Reference: ChEMBL document CHEMBL1201861, “Genomics of Drug Sensitity in Cancer screening data, Wellcome Trust Sanger Institute”
